Data as given in patent US7087631B2, “Aryltetrazole compounds, and compositions thereof” (Inotek Pharmaceuticals Corporation, priority 2002, dated 2006).

Assays:
[1] = tested on: thioacetamide model of hepatic failure; assay: Toxic liver injury model (thioacetamide model of hepatic failure), serum AST; assay type: in vivo; settings: mice; for serum AST levels (result in words): summary of the table; for Percent Inhibition of Serum AST Levels: thioacetamide 400 mg/kg i.p., mean ±SEM (n=7-10)
Method: Illustrative 5-Aryltetrazole Compounds exert hepatoprotective effects in a thioacetamide model of hepatic failure. […] […] Results are expressed as percent inhibtion, mean ±SEM (n=7-10). Studies were conducted as described in Biochim. Biophys. Acta. 1536(1):21-30 (2001).

[2] = target: xanthine oxidase (Homo sapiens, UniProt P47989); assay: Xanthine oxidase inhibitory activity, 96 well plate, kinetic reading at 295 nm; assay type: biochemical
Chain of xanthine oxidase (P47989 whole entry, species assumed): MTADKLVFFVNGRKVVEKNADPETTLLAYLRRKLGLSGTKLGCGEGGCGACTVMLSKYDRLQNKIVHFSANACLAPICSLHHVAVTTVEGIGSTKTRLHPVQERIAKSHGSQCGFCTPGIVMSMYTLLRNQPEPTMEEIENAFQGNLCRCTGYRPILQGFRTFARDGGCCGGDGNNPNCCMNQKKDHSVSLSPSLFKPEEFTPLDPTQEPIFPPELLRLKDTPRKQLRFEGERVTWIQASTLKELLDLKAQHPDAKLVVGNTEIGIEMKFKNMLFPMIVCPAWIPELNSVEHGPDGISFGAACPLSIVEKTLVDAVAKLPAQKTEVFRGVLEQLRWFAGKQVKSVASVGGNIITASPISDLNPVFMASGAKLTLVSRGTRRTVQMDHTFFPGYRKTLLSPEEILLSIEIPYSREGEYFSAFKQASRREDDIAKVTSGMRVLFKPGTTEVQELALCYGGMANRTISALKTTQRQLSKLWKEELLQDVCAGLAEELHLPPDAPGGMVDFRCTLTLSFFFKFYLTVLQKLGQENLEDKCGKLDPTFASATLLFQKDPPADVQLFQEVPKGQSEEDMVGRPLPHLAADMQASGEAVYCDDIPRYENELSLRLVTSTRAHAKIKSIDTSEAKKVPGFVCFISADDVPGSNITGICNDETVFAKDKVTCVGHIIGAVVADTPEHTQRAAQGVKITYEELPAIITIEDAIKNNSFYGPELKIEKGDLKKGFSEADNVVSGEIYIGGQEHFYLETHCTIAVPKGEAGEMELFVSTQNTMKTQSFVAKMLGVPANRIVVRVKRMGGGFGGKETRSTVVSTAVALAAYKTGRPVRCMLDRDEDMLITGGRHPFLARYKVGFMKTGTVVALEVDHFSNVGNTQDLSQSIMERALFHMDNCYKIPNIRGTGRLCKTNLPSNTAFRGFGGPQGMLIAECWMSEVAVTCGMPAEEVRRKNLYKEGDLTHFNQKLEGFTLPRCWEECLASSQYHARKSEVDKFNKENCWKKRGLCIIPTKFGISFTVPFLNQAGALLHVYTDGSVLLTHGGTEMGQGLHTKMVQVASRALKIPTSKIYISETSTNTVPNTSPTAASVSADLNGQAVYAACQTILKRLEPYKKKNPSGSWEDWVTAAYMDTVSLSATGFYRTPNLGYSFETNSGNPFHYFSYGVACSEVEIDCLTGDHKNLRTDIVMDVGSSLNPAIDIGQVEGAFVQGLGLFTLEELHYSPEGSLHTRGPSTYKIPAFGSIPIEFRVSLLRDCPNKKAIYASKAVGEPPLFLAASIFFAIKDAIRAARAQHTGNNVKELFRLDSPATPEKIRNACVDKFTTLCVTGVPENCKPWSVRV

[3] = compound concentration 0.01 μM, 0.01 µM
[4] = compound concentration 0.1 μM, 0.1 µM

SMILES	PERCENT XANTHINE OXIDASE INHIBITION ([2]; compound concentration 0.03 μM) [%]	PERCENT XANTHINE OXIDASE INHIBITION ([2]; compound concentration 0.1 μM) [%]	PERCENT XANTHINE OXIDASE INHIBITION ([2]; compound concentration 1 μM) [%]	further results
O=C(Nc1ccccc1)c1ccc(-c2nn[nH]n2)cc1 [Compound IC]	60	81	100	serum AST levels (result in words) [1]: inhibit serum AST levels; Percent Inhibition of Serum AST Levels ([1]; single oral dose 3 mg/kg): 3 ± 8%; Percent Inhibition of Serum AST Levels ([1]; single oral dose 10 mg/kg): 20 ± 5%
O=C(OCCN1C(=O)CCC1=O)c1ccc(-c2nnn[nH]2)cc1 [GW]	–	9	39	PERCENT XANTHINE OXIDASE INHIBITION ([2]; compound concentration 0.01 μM): 5%
O=C(OC1CCC2CCCCC2C1)c1ccc(-c2nnn[nH]2)cc1 (stereo not shown) [GY]	–	11	76	PERCENT XANTHINE OXIDASE INHIBITION ([2]; compound concentration 0.01 μM): 19%
O=C(OC(C1CCCCC1)C1CCCCC1)c1ccc(-c2nnn[nH]2)cc1 [GZ]	–	–	8	–
O=C(NC1CCCCC1)c1ccc(-c2nnn[nH]2)cc1 [HA]	–	10	61	–
O=C(NCc1cccnc1)c1ccc(-c2nnn[nH]2)cc1 [HC]	–	–	25	–
CCOc1ccc(-c2nnn[nH]2)cc1 [HD]	–	–	–	PERCENT XANTHINE OXIDASE INHIBITION ([2]; compound concentration 100 μM): 60%
O=[N+]([O-])c1cc(-c2nnn[nH]2)ccc1Cl [HF]	–	–	–	PERCENT XANTHINE OXIDASE INHIBITION ([2]; compound concentration 100 μM): 80%
COc1cc(-c2nnn[nH]2)cc(OC)c1OC [HG]	–	–	–	PERCENT XANTHINE OXIDASE INHIBITION ([2]; compound concentration 100 μM): 22%
c1cncc(-c2cccc(-c3nnn[nH]3)c2)c1 [HJ]	–	–	–	PERCENT XANTHINE OXIDASE INHIBITION ([2]; compound concentration 100 μM): 2%
CC(C)(C)OC(=O)N1CCN(C(=O)c2ccc(-c3nnn[nH]3)cc2)CC1 [HK]	–	–	–	PERCENT XANTHINE OXIDASE INHIBITION ([2]; compound concentration 100 μM): 43%
O=C(c1ccc(-c2nnn[nH]2)cc1)N1CCNCC1 [HL]	–	–	–	PERCENT XANTHINE OXIDASE INHIBITION ([2]; compound concentration 100 μM): 0%
COc1ccc(-c2nnn[nH]2)c2ccccc12 [HM]	–	–	–	PERCENT XANTHINE OXIDASE INHIBITION ([2]; compound concentration 100 μM): 27%
O=C(NCC1CCCCC1)c1ccc(-c2nnn[nH]2)cc1 [HS]	8	16	55	–
O=C(NC12CC3CC(CC(C3)C1)C2)c1ccc(-c2nnn[nH]2)cc1 [HT]	15	23	62	–
O=S(=O)(NC12CC3CC(CC(C3)C1)C2)c1ccc(-c2nnn[nH]2)cc1 [HU]	–	–	0	–
O=S(=O)(NC1CCCCC1)c1ccc(-c2nnn[nH]2)cc1 [HV]	–	–	0	–
O=C(O)c1cccc(NC(=O)c2ccc(-c3nnn[nH]3)cc2)c1 [IB]	38	64	94	–
CC(C)c1ccccc1NC(=O)c1ccc(-c2nnn[nH]2)cc1 [IF]	–	–	16	–
CCCCc1ccc(NC(=O)c2ccc(-c3nnn[nH]3)cc2)cc1 [IH]	33	63	95	–
O=C(O)Cc1ccc(NC(=O)c2ccc(-c3nnn[nH]3)cc2)cc1 [II]	20	45	90	–
COc1ccccc1NC(=O)c1ccc(-c2nnn[nH]2)cc1 [IK]	9	17	55	–
O=C(Nc1ccccc1)Nc1ccc(-c2nnn[nH]2)cc1 [IU]	3	9	42	–
O=C(Nc1ccc(F)cc1F)c1ccc(-c2nnn[nH]2)cc1 [IZ]	23	52	89	–
O=C(NCc1ccccc1)c1ccc(-c2nnn[nH]2)cc1 [JA]	–	0	–	–
COc1cc(-c2nnn[nH]2)ccc1OCC(C)C [JD]	–	0	28	–
N#Cc1cc(-c2nnn[nH]2)ccc1C(=O)Nc1ccncc1 [JG]	33	61	93	–
N#Cc1cc(-c2nnn[nH]2)ccc1C(=O)Nc1cccnc1 [JH]	23	41	86	–
N#Cc1cc(-c2nnn[nH]2)ccc1C(=O)Nc1nccs1 [JI]	19	30	79	–

More lines, main results first:

PERCENT XANTHINE OXIDASE INHIBITION ([2]; compound concentration 0.03 μM) [%]	PERCENT XANTHINE OXIDASE INHIBITION ([2]; compound concentration 0.1 μM) [%]	PERCENT XANTHINE OXIDASE INHIBITION ([2]; compound concentration 1 μM) [%]	SMILES	further results
28	52	92	CC(C)c1ccc(NC(=O)c2ccc(-c3nnn[nH]3)cc2)cc1 [Compound IP]	serum AST levels (result in words) [1]: inhibit serum AST levels; Percent Inhibition of Serum AST Levels ([1]; single oral dose 3 mg/kg): 23 ± 8%; Percent Inhibition of Serum AST Levels ([1]; single oral dose 10 mg/kg): 41 ± 8%
–	73	95	O=C(OCC(Cl)(Cl)Cl)c1ccc(-c2nnn[nH]2)cc1 [GV]	PERCENT XANTHINE OXIDASE INHIBITION ([2]; compound concentration 0.01 μM): 14%
–	–	100	O=C(OCc1ccccc1I)c1ccc(-c2nnn[nH]2)cc1 [GX]	PERCENT XANTHINE OXIDASE INHIBITION [2, 3]: 19%; PERCENT XANTHINE OXIDASE INHIBITION [2, 4]: 84%
–	–	25	O=C(NCc1ccc2c(c1)OCO2)c1ccc(-c2nnn[nH]2)cc1 [HB]	–
–	–	14	c1cncc(-c2ccc(-c3nnn[nH]3)cc2)c1 [HI]	PERCENT XANTHINE OXIDASE INHIBITION ([2]; compound concentration 10 μM): 24%; PERCENT XANTHINE OXIDASE INHIBITION ([2]; compound concentration 100 μM): 70%
–	95	98	O=C(OCc1cccnc1)c1ccc(-c2nnn[nH]2)cc1 [HO]	PERCENT XANTHINE OXIDASE INHIBITION ([2]; compound concentration 0.05 μM): 46%
–	91	100	O=C(OCc1ccco1)c1ccc(-c2nnn[nH]2)cc1 [HP]	PERCENT XANTHINE OXIDASE INHIBITION ([2]; compound concentration 0.05 μM): 41%
–	97	95	O=C(OCCc1cccs1)c1ccc(-c2nnn[nH]2)cc1 [HQ]	PERCENT XANTHINE OXIDASE INHIBITION ([2]; compound concentration 0.05 μM): 53%
–	95	95	CCCOC(=O)c1ccc(-c2nnn[nH]2)cc1 [HR]	PERCENT XANTHINE OXIDASE INHIBITION ([2]; compound concentration 0.05 μM): 34%
32	62	89	O=C(Nc1cccc(F)c1)c1ccc(-c2nnn[nH]2)cc1 [HW]	–
20	45	86	O=C(Nc1ccccc1F)c1ccc(-c2nnn[nH]2)cc1 [HY]	–
20	41	88	O=C(Nc1cccc(I)c1)c1ccc(-c2nnn[nH]2)cc1 [HZ]	–
13	37	72	O=C(O)Cc1cccc(NC(=O)c2ccc(-c3nnn[nH]3)cc2)c1 [ID]	–
22	38	87	CCc1cccc(NC(=O)c2ccc(-c3nnn[nH]3)cc2)c1 [IE]	–
27	58	93	COc1ccc(NC(=O)c2ccc(-c3nnn[nH]3)cc2)cc1 [IJ]	–
21	46	86	COc1cccc(NC(=O)c2ccc(-c3nnn[nH]3)cc2)c1 [IL]	–
–	–	0	CN(C(=O)c1ccc(-c2nnn[nH]2)cc1)c1ccccc1 [IM]	–
–	21	68	c1cc(-c2nnn[nH]2)ccc1OCC1CCCCC1 [IN]	xanthine oxidase activity (result in words) ([2]; summary of the table): inhibit xanthine oxidase activity
–	–	0	O=C(Nc1ccccc1)c1cccc(-c2nnn[nH]2)c1 [IO]	–
36	33	64	CCCCOc1ccc(NC(=O)c2ccc(-c3nnn[nH]3)cc2)cc1 [IQ]	–
–	10	35	c1ccc(COc2ccc(-c3nnn[nH]3)cc2)cc1 [IV]	–
–	9	22	c1ccc(CCCOc2ccc(-c3nnn[nH]3)cc2)cc1 [IW]	–
26	47	86	O=C(Nc1ccc(Cl)cc1Cl)c1ccc(-c2nnn[nH]2)cc1 [IY]	–
–	6	34	N#Cc1cc(-c2nnn[nH]2)ccc1C(=O)Nc1ccccc1 [JF]	–
–	–	0	O=C(Nc1ccccc1)c1ccc(-c2nnn[nH]2)cc1Cl [JJ]	–
–	–	0	Cc1cc(C(=O)Nc2ccccc2)ccc1-c1nnn[nH]1 [JK]	–
34	68	95	O=C(Nc1ccc(Cl)c(Cl)c1)c1ccc(-c2nnn[nH]2)cc1 [JL]	–
46	74	98	CC(C)COc1ccc(-c2nnn[nH]2)cc1 [JP]	–
–	–	100	O=C(OCc1ccccc1I)c1ccc(-c2nnn[nH]2)cc1 [JQ]	PERCENT XANTHINE OXIDASE INHIBITION [2, 3]: 18%; PERCENT XANTHINE OXIDASE INHIBITION [2, 4]: 89%
–	–	14	COc1ccc2cc(-c3nnn[nH]3)ccc2c1 [JR]	PERCENT XANTHINE OXIDASE INHIBITION ([2]; compound concentration 10 μM): 56%; PERCENT XANTHINE OXIDASE INHIBITION ([2]; compound concentration 100 μM): 85%
